Drawing on ChEMBL document CHEMBL1127176, “Restricted rotation analogs of S-adenosylmethionine: synthesis, evaluation as inhibitors of S-adenosylmethionine decarboxylase, and potential use as selective antitrypanosomal agents” (Bioorg Med Chem Lett, 1993), this text covers IC50 and Inhibition for seven compounds.

Each structure is given as a SMILES string.

In one test the test system is L1210. As to the kind of experiment: Tested for the ability to traverse cell membranes and to alter ratio of AdoMet to S-adenosyl-homocysteine (AdoHcy) in L1210 murine lymphocytic leukemia cells; IA means inactive. Type of test: functional, cell-based, Mus musculus.
The subject of another test is HT-29. As to the kind of experiment: Tested for the ability to traverse cell membranes and to alter ratio of AdoMet to S-adenosyl-homocysteine (AdoHcy) in HT-29 human colon carcinoma; IA means inactive. It counts as functional, cell-based.
The next test has as its system Trypanosoma brucei. The test is described as follows: Tested for antitrypanosomal activity against blood forms of Trypanosoma uM concentration. Type of test: functional.
The next test has as its system HL-60. As to the kind of experiment: Tested for the ability to traverse cell membranes and to alter ratio of AdoMet to S-adenosyl-homocysteine (AdoHcy) in HL60 human promyelocytic leukemia cells. Type of test: functional, cell-based.

As for `C[S+](C[C@H]1O[C@@H](n2cnc3c(N)ncnc32)[C@H](O)[C@@H]1O)C1C=C[C@H](N)C1.O=S(=O)(O)O.O=S(=O)([O-])O` (stereo partly drawn), the IC50 entry in the test on L1210 and with HT-29 was “Not Active” each time. The Inhibition in the test with Trypanosoma brucei was 50%.

On to `Nc1ncnc2c1ncn2[C@@H]1O[C@H](CS[C@H]2CN[C@H](C(=O)O)C2)[C@@H](O)[C@H]1O.O=S(=O)(O)O`, for which the IC50 with HL-60 is > 1 mM. Further, in the test on Trypanosoma brucei, the Inhibition is reported as 41%.

`Nc1ncnc2c1ncn2[C@@H]1O[C@H](CS[C@@H]2CN[C@H](C(=O)O)C2)[C@@H](O)[C@H]1O.O=S(=O)(O)O`: in the test with HL-60, the IC50 was > 1 mM. For the same compound, the Inhibition in the test with Trypanosoma brucei turned out to be 30%.

In turn, `C[S+](C[C@H]1O[C@@H](n2cnc3c(N)ncnc32)[C@H](O)[C@@H]1O)C1CCNC1.O=S(=O)(O)O.O=S(=O)([O-])O` (stereo partly drawn) had an Inhibition in the test with Trypanosoma brucei of 49%.

`C[S+](C[C@H]1O[C@@H](n2cnc3c(N)ncnc32)[C@H](O)[C@@H]1O)C1CN[C@H](C(=O)O)C1.O=S(=O)(O)O.O=S(=O)([O-])O` (stereo partly drawn): the IC50 with HL-60 was > 1 mM. In the test on Trypanosoma brucei, the Inhibition was 64%.

Compound `Nc1ncnc2c1ncn2[C@@H]1O[C@H](CSC2CCNC2)[C@@H](O)[C@H]1O.O=S(=O)(O)O` (stereo partly drawn) yielded an Inhibition with Trypanosoma brucei of 40%.

As to `C[S+](C[C@H]1O[C@@H](n2cnc3c(N)ncnc32)[C@H](O)[C@@H]1O)[C@H]1CN[C@H](C(=O)O)C1.O=S(=O)(O)O.O=S(=O)([O-])O` (stereo partly drawn), the IC50 in the test on HL-60 was > 1 mM. The same compound came in with an Inhibition in the test on Trypanosoma brucei of 34%.

In general, IC50 refers to the concentration at which inhibition is half-maximal. For orientation: Inhibition means the percentage by which the read-out fell short of the control. The low end stands for little suppression, the high end for strong suppression.
